Experimental data taken from PubChem BioAssay (NCI).
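Abbreviation: GI50, concentration required for 50% inhibition of growth. TGI marks complete inhibition of growth.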

Legend:
Assay in all cases: NCI anticancer screen, dose series, 384-well format
UACC-62 melanoma = test system: UACC-62 melanoma
EKVX NSCLC = test system: EKVX NSCLC
A549 NSCLC = test system: A549 NSCLC
MCF7 breast = test system: MCF7 breast
NCI-H322M lung = test system: NCI-H322M lung
NCI-H226 lung = test system: NCI-H226 lung
K-562 leukemia = test system: K-562 leukemia
M14 melanoma = test system: M14 melanoma
U251 glioblastoma = test system: U251 glioblastoma
HT29 colon = test system: HT29 colon
IGROV1 ovarian = test system: IGROV1 ovarian
RPMI-8226 leukemia = test system: RPMI-8226 leukemia
HCT-116 colon = test system: HCT-116 colon
SR leukemia = test system: SR leukemia
HCC-2998 colon = test system: HCC-2998 colon
RXF 393 renal = test system: RXF 393 renal
MOLT-4 leukemia = test system: MOLT-4 leukemia
SN12C renal = test system: SN12C renal
COLO 205 colon = test system: COLO 205 colon
SF-295 CNS = test system: SF-295 CNS
SK-MEL-5 melanoma = test system: SK-MEL-5 melanoma
OVCAR-4 ovarian = test system: OVCAR-4 ovarian
KM12 colon = test system: KM12 colon
SK-OV-3 ovarian = test system: SK-OV-3 ovarian
UACC-257 melanoma = test system: UACC-257 melanoma
CAKI-1 renal = test system: CAKI-1 renal
PC-3 prostate = test system: PC-3 prostate
TK-10 renal = test system: TK-10 renal
BT-549 breast = test system: BT-549 breast
LOX IMVI melanoma = test system: LOX IMVI melanoma
SK-MEL-2 melanoma = test system: SK-MEL-2 melanoma
CCRF-CEM leukemia = test system: CCRF-CEM leukemia
NCI-H23 lung = test system: NCI-H23 lung
MALME-3M melanoma = test system: MALME-3M melanoma
HL-60(TB) leukemia = test system: HL-60(TB) leukemia
MDA-MB-435 melanoma = test system: MDA-MB-435 melanoma
NCI-H460 NSCLC = test system: NCI-H460 NSCLC
786-0 renal = test system: 786-0 renal
NCI/ADR-RES ovarian = test system: NCI/ADR-RES ovarian
HS 578T breast = test system: HS 578T breast
NCI-H522 lung = test system: NCI-H522 lung
SK-MEL-28 melanoma = test system: SK-MEL-28 melanoma
OVCAR-5 ovarian = test system: OVCAR-5 ovarian
UO-31 renal = test system: UO-31 renal
A498 renal = test system: A498 renal
SNB-19 CNS = test system: SNB-19 CNS
HOP-62 NSCLC = test system: HOP-62 NSCLC
T-47D breast = test system: T-47D breast
ACHN renal = test system: ACHN renal
SF-268 CNS = test system: SF-268 CNS
MDA-MB-231 breast = test system: MDA-MB-231 breast
SNB-75 CNS = test system: SNB-75 CNS
OVCAR-3 ovarian = test system: OVCAR-3 ovarian
HCT-15 colon = test system: HCT-15 colon
HOP-92 NSCLC = test system: HOP-92 NSCLC
SF-539 CNS = test system: SF-539 CNS
SW-620 colon = test system: SW-620 colon
MDA-MB-468 breast = test system: MDA-MB-468 breast
DU-145 prostate = test system: DU-145 prostate

For `Cc1cc(Nc2cc(N3CCN(C)CC3)nc(C#Cc3ccccc3)n2)n[nH]1`, the GI50 (UACC-62 melanoma) was 3.1 µM, the TGI (UACC-62 melanoma) was 14.8 µM and the GI50 (EKVX NSCLC) was 2.79 µM. For the same compound, the TGI (EKVX NSCLC) was 12.7 µM, the GI50 (A549 NSCLC) was 3.44 µM and the TGI (A549 NSCLC) was 12.2 µM. It also gave a GI50 (MCF7 breast) of 3.07 µM, a TGI (MCF7 breast) of 15.1 µM and a GI50 (NCI-H322M lung) of 5.44 µM. For the same compound, the TGI (NCI-H322M lung) was 19.6 µM, the GI50 (NCI-H226 lung) was 4.3 µM and the TGI (NCI-H226 lung) was 16.9 µM. It also gave a GI50 (K-562 leukemia) of 2.63 µM, a TGI (K-562 leukemia) of 12.3 µM and a GI50 (M14 melanoma) of 3.13 µM. It also gave a TGI (M14 melanoma) of 16.5 µM, a GI50 (U251 glioblastoma) of 5.41 µM and a TGI (U251 glioblastoma) of 18.6 µM. The GI50 (HT29 colon) was 3.95 µM, the TGI (HT29 colon) was 14.8 µM and the GI50 (IGROV1 ovarian) was 0.607 µM. The TGI (IGROV1 ovarian) was 3.28 µM, the GI50 (RPMI-8226 leukemia) was 3.24 µM and the TGI (RPMI-8226 leukemia) was 13.4 µM. For the same compound, the GI50 (HCT-116 colon) was 2.94 µM, the TGI (HCT-116 colon) was 11.9 µM and the GI50 (SR leukemia) was 1.36 µM. For the same compound, the TGI (SR leukemia) was 2.75 µM, the GI50 (HCC-2998 colon) was 0.348 µM and the TGI (HCC-2998 colon) was 6.72 µM. For the same compound, the GI50 (RXF 393 renal) was 1.07 µM, the TGI (RXF 393 renal) was 4.32 µM and the GI50 (MOLT-4 leukemia) was 1.26 µM. The TGI (MOLT-4 leukemia) was 2.58 µM, the GI50 (SN12C renal) was 2.73 µM and the TGI (SN12C renal) was 12.7 µM. It also gave a GI50 (COLO 205 colon) of 3.73 µM, a TGI (COLO 205 colon) of 14.5 µM and a GI50 (SF-295 CNS) of 2.95 µM. For the same compound, the TGI (SF-295 CNS) was 13 µM, the GI50 (SK-MEL-5 melanoma) was 2.49 µM and the TGI (SK-MEL-5 melanoma) was 12.9 µM. For the same compound, the GI50 (OVCAR-4 ovarian) was 5.97 µM, the TGI (OVCAR-4 ovarian) was 20 µM and the GI50 (KM12 colon) was 0.334 µM. The TGI (KM12 colon) was 10.4 µM, the GI50 (SK-OV-3 ovarian) was 1.04 µM and the TGI (SK-OV-3 ovarian) was 4.36 µM. It also gave a GI50 (UACC-257 melanoma) of 3.77 µM, a TGI (UACC-257 melanoma) of 14.3 µM and a GI50 (CAKI-1 renal) of 1.6 µM. It also gave a TGI (CAKI-1 renal) of 7.03 µM, a GI50 (PC-3 prostate) of 3.09 µM and a TGI (PC-3 prostate) of 13.9 µM. It also gave a GI50 (TK-10 renal) of 2.48 µM, a TGI (TK-10 renal) of 15.2 µM and a GI50 (BT-549 breast) of 2.58 µM. It also gave a TGI (BT-549 breast) of 7.09 µM, a GI50 (LOX IMVI melanoma) of 4.02 µM and a TGI (LOX IMVI melanoma) of 13 µM. For the same compound, the GI50 (SK-MEL-2 melanoma) was 4.14 µM, the TGI (SK-MEL-2 melanoma) was 6.87 µM and the GI50 (CCRF-CEM leukemia) was 2.19 µM. The TGI (CCRF-CEM leukemia) was 7.01 µM, the GI50 (NCI-H23 lung) was 2.3 µM and the TGI (NCI-H23 lung) was 10.9 µM. The GI50 (MALME-3M melanoma) was 2.57 µM, the TGI (MALME-3M melanoma) was 11.8 µM and the GI50 (HL-60(TB) leukemia) was 2.12 µM. It also gave a TGI (HL-60(TB) leukemia) of 5.14 µM, a GI50 (MDA-MB-435 melanoma) of 3.18 µM and a TGI (MDA-MB-435 melanoma) of 12.6 µM. For the same compound, the GI50 (NCI-H460 NSCLC) was 2.42 µM, the TGI (NCI-H460 NSCLC) was 12.1 µM and the GI50 ([…]-0 renal) was 3.75 µM. For the same compound, the TGI (786-0 renal) was 15 µM, the GI50 (NCI/ADR-RES ovarian) was 9.92 µM and the TGI (NCI/ADR-RES ovarian) was 22 µM. It also gave a GI50 (HS 578T breast) of 2.24 µM, a TGI (HS 578T breast) of 9.92 µM and a GI50 (NCI-H522 lung) of 1.71 µM. The TGI (NCI-H522 lung) was 8.3 µM, the GI50 (SK-MEL-28 melanoma) was 5.59 µM and the TGI (SK-MEL-28 melanoma) was 18.8 µM. For the same compound, the GI50 (OVCAR-5 ovarian) was 3.53 µM, the TGI (OVCAR-5 ovarian) was 15.2 µM and the GI50 (UO-31 renal) was 2.2 µM. The TGI (UO-31 renal) was 8.13 µM, the GI50 (A498 renal) was 1.66 µM and the TGI (A498 renal) was 11 µM. It also gave a GI50 (SNB-19 CNS) of 6.17 µM, a TGI (SNB-19 CNS) of 19.3 µM and a GI50 (HOP-62 NSCLC) of 3.28 µM. It also gave a TGI (HOP-62 NSCLC) of 13.5 µM, a GI50 (T-47D breast) of 9.61 µM and a TGI (T-47D breast) of 21.4 µM. It also gave a GI50 (ACHN renal) of 1.23 µM, a TGI (ACHN renal) of 7.68 µM and a GI50 (SF-268 CNS) of 4.58 µM. For the same compound, the TGI (SF-268 CNS) was 16.9 µM, the GI50 (MDA-MB-231 breast) was 3.54 µM and the TGI (MDA-MB-231 breast) was 15.9 µM. The GI50 (SNB-75 CNS) was 1.73 µM, the TGI (SNB-75 CNS) was 4.35 µM and the GI50 (OVCAR-3 ovarian) was 2.12 µM. The TGI (OVCAR-3 ovarian) was 13.4 µM, the GI50 (HCT-15 colon) was 2.22 µM and the TGI (HCT-15 colon) was 11.4 µM. The GI50 (HOP-92 NSCLC) was 2.23 µM, the TGI (HOP-92 NSCLC) was 8.85 µM and the GI50 (SF-539 CNS) was 3.62 µM. The TGI (SF-539 CNS) was 15.9 µM, the GI50 (SW-620 colon) was 3.42 µM and the TGI (SW-620 colon) was 12.5 µM. It also gave a GI50 (MDA-MB-468 breast) of 1.51 µM, a TGI (MDA-MB-468 breast) of 3.55 µM and a GI50 (DU-145 prostate) of 4.04 µM. The TGI (DU-145 prostate) was 17.4 µM.
